{"source": "patent US10046046B2", "about": "“Amino sphingoglycolipid analogues” (Victoria Link Limited, priority 2014, dated 2018)", "key": {"CD11c+ dendritic cells": {"tested_on": "CD11c+ dendritic cells", "assay": "CD86 expression on splenic dendritic cells", "assay_type": "in vivo, C57BL/6 mice", "details": "0.571 nmol intravenously, spleens removed 20 h later, n=3, FIG. 3", "experimental": "Groups of C57BL/6 mice (n=3) are injected intravenously with 0.571 nmol of the indicated compounds and then the spleens removed 20 h later for the analysis of CD86 expression on CD11c^+ dendritic cells by antibody labelling and flow cytometry. Mean fluorescence index (MFI)±SEM are presented. *P<0.05, *P<0.01, ***P<0.001\nAntibody staining and flow cytometry is used to examine the expression of maturation markers on dendritic cells in the spleen following injection of compounds of the invention (0.23 nmol). Splenocyte preparations are prepared by gentle teasing of splenic tissue through gauze in Iscove's Modified Dulbecco's Medium with 2 mM glutamine, 1% penicillin-streptomycin, 5×10^-5 M 2-mercapto-ethanol and 5% fetal bovine serum (all Invitrogen, Auckland, New Zealand), followed by lysis of red blood cells with RBC lysis buffer (Puregene, Gentra Systems, Minneapolis, Minn., USA). Antibody staining is performed in PBS 2% fetal bovine serum and 0.01% sodium azide. The anti-FcgRII monoclonal antibody 2.4G2 is used at […] to inhibit non-specific staining. Monoclonal antibodies (all BD Biosciences Pharmingen, San Jose, Calif., USA) are used to examine expression of the maturation markers CD40, CD80 and CD86 on CD11c+ dendritic cells."}, "[1]": {"tested_on": "NKT cell activity (CD86 on B cells in the peripheral blood)", "assay": "CD86 expression on peripheral blood B cells as readout of NKT cell activity", "assay_type": "in vivo, C57BL/6 mice", "details": "0.23 nmol intravenously, blood collected 20 h later, n=3, FIG. 1", "experimental": "Groups of C57BL/6 mice (n=3) are injected intravenously with 0.23 nmol of the indicated glycolipid compounds and then the blood samples collected 20 h later for the analysis of CD86 expression on CD45 (B220)+B cells by antibody labelling and flow cytometry. Mean fluorescence index (MFI)±SEM are presented, *P<0.05, *P<0.01, ***P<0.001.\nEach compound of the invention is supplied as formulated product (see example 3), and diluted in phosphate-buffered saline (PBS) for injection (0.23 nmol/mouse) by intravenous injection into the lateral tail vein. In humans the expected therapeutic dose lies in the 50-4800 (μg/m^2) range (Giaccone, Punt et al. 2002). Note, 0.23 nmol in a mouse is a human equivalent dose of 30 μg/m^2 for α-GalCer.\nAll antibody labelling is performed on ice in FACS buffer (PBS supplemented with 1% FCS, 0.05% sodium azide, and 2 mM EDTA). Non-specific FcR-mediated antibody staining is blocked by incubation for 10 min with anti-CD16/32 Ab (24G2, prepared in-house from hybridoma supernatant). Flow cytometry is performed on a BD Biosciences FACSCalibur or BD LSRII SORP flow cytometer with data analysis using FlowJo software (Tree Star, Inc., OR, USA).\nAntibody staining and flow cytometry are used to examine the expression of the maturation markers CD86 on peripheral blood B cells following injection of compounds of the invention. […]"}, "[2]": {"tested_on": "SIINFEKL-specific T cells", "assay": "Peptide-specific T cell proliferation in vivo (OT-1 transfer)", "parameters": "species or system C57BL/6 mice", "details": "intravenous vaccination one day after transfer of 10,000 OT-1 cells, equivalent molar dose of SIINFEKL, blood after seven days, FIG. 2", "experimental": "The compounds are injected to give the equivalent molar dose of SIINFEKL (SEQ ID NO: 262) peptide in each case. To increase sensitivity of the assay, all mice are initially donated a cohort of 10,000 SIINFEKL-specific T cells from a transgenic mouse encoding a T cell receptor for this antigen (OT-1 mice) by intravenous injection of the cells one day before the vaccines are administered. […] It is therefore possible to enumerate SIINFEKL-specific T cells in blood by flow cytometry using antibodies for CD45.1 together with antibodies for the transgenic T cell receptor (Vα2). Control animals (naïve) are injected with the diluent phosphate-buffered saline (PBS). […] Each dot represents a different animal; mean per treatment group±SEM are presented. *P<0.05, *P<0.01, ***P<0.001\nPooled lymph node cell suspensions are prepared from animals of a cross between OT-1 mice, which express a transgenic T cell receptor (TCR) specific for the ovalbumin epitope SIINFEKL (SEQ ID NO: 262)-in the context of H-2K^b molecules, and B6.SJL-Ptprc^a Pepc^b/BoyJ mice, which are congenic with C57BL/6 mice for the CD45.1^+ marker. The samples are enriched for CD8^+ cells using antibody coated magnetic beads (Miltenyi), and then transferred into C57BL/6 mice (1×10^4 per mouse). Groups of recipient animals (n=5) are immunized with compounds of the invention one day later. […]"}, "[3]": {"details": "Ebensen, Link et al. 2007; cited from earlier work"}, "human NKT cells": {"tested_on": "human NKT cells", "details": "Kawano, Cui et al. 1997; cited from earlier work"}, "mouse NKT cells": {"tested_on": "mouse NKT cells", "details": "Kawano, Cui et al. 1997; cited from earlier work"}, "[4]": {"tested_on": "syngeneic splenocytes loaded ex vivo with SIINFEKL", "assay": "Peptide-specific T cell-mediated cytotoxicity in vivo (VITAL assay)", "parameters": "species or system mice", "details": "0.571 nmol intravenously, targets injected 7 days after vaccination, 5 animals per group, FIG. 4", "experimental": "The compounds are injected to give the equivalent molar dose of SIINFEKL (SEQ ID NO: 262) peptide, in each case of 0.571 nmol. Flow cytometry is used to assess the killing of target cells comprised of syngeneic splenocytes loaded ex vivo with 5 μM SIINFEKL (SEQ ID NO: 262) injected intravenously 7 days after vaccination. To discriminate the targets from host tissue, the injected cells are labelled with the fluorescent dye carboxyfluorescein succinimidyl ester (CFSE). A cohort syngeneic splenocytes (without peptide) labelled with the fluorescent dye cell tracker orange are also injected to serve as controls. Killing is defined as the percentage of peptide-loaded targets killed relative to control cells. Each treatment group contained 5 animals. Control animals are injected with the diluent phosphate-buffered saline (PBS). […] Mean percentage of killing per group±SEM are shown. ***p<0.001\nThe cytotoxic capacity of induced CD8^+ T cell responses is measured by VITAL assay (Hermans, Silk et al. 2004). […] Specific lysis of the peptide-loaded targets is monitored by flow cytometry of blood or spleen samples 24 h later. Mean percent survival of peptide-pulsed (CFSE+) targets is calculated relative to that of the control population (CTO+), and cytotoxic activity is expressed as percent specific lysis (100−mean percent survival of peptide-pulsed targets)."}, "B16.OVA melanoma cells": {"tested_on": "B16.OVA melanoma cells", "assay": "Anti-tumour activity against subcutaneous B16.OVA tumours", "assay_type": "in vivo, C57BL/6 mice", "details": "0.571 nmol intravenously five days after tumour challenge, n=5, FIG. 5", "experimental": "Progression of subcutaneous B16.OVA tumours is monitored in animals treated five days after tumour challenge with intravenous CI-017 or CN159 peptide and α-GalCer or with PBS. The mean tumour sizes per group (n=5)±SEM are shown.\nGroups of C57BL/6 mice (n=5) receive a subcutaneous injection into the flank of 1×10^5 B16.OVA melanoma cells, which express a cDNA encoding the chicken ovalbumin (OVA) sequence. The different groups are treated five days later by intravenous injection of one of the following; CI-017 (0.571 nmol), peptide CN159 (0.571 nmol) mixed with α-GalCer (0.571 nmol), or PBS. Mice are monitored for tumour growth every 3-4 days, and tumour size for each group calculated as the mean of the products of bisecting diameters (±SEM). Measurements are terminated for each group when the first animal develops a tumour exceeding 200 mm^2."}}, "note": "Entries after “also recorded” stand apart in the source; their conditions may differ. Square brackets hold non-standard residues; d marks the D form. Peptide text beside a SMILES is read from it. * marks the point of attachment. ξ: configuration not given here. X1 = CCCCCCCCCCCCCCCCCCCCCCCCCC(=O)N[C@@H](CO[C@H]1OC(CNC(=O)OCOC(=O)CC/C(C)=N/OCC(=O)*)[C@H](O)[C@H](O)C1O)[C@H](O)[C@H](O)CCCCCCCCCCCCCC; ξF = NC(Cc1ccccc1)C(=O)O", "data": [{"compound": "CCCCCCCCCCCCCCCCCCCCCCCCCC(=O)N[C@@H](CO[C@H]1OC(CN)[C@H](O)C(O)C1O)[C@H](O)[C@H](O)CCCCCCCCCCCCCC", "note": "(some centres unmarked) [CN168]", "values": [{"measurement": "CD86 expression on CD11c+ dendritic cells in spleen (mean fluorescence index)", "setting": "CD11c+ dendritic cells", "value": "potently activated dendritic cells"}]}, {"compound": "CCCCCCCCCCCCCCCCCCCCCCCCCC(=O)N[C@@H](CO[C@H]1OC(CNC(=O)OCOC(=O)CC/C(C)=N/OCC(=O)N[C@@H](Cc2ccccc2)C(=O)NC(Cc2ccccc2)C(=O)N[C@@H](CCCNC(=N)N)C(=O)N[C@@H](CCCCN)C(=O)N[C@@H](CO)C(=O)N[C@H](C(=O)N[C@H](C(=O)N[C@@H](CC(N)=O)C(=O)N[C@@H](Cc2ccccc2)C(=O)N[C@@H](CCC(=O)O)C(=O)N[C@@H](CCCCN)C(=O)N[C@@H](CC(C)C)C(=O)O)[C@@H](C)CC)[C@@H](C)CC)[C@H](O)[C@H](O)C1O)[C@H](O)[C@H](O)CCCCCCCCCCCCCC", "note": "(stereo partly drawn) [CN169, (2S,3S,4R)-1-(6-Deoxy-6-(4-((2-(FFRKSIINFEKL)-2-(oxo)ethoxyimino)pentanoyloxy)methoxycarbonylamino)-α-D-galactopyranosyloxy)-2-hexacosanoylamino-3,4-octadecandiol] (X1-F[ξF]RKSIINFEKL-OH)", "values": [{"measurement": "CD86 expression on CD45 (B220)+ B cells in peripheral blood (mean fluorescence index)", "setting": "[1]", "value": "potently activate B cells"}, {"measurement": "SIINFEKL-specific T cells (Vα2+ CD45.1+) in blood", "setting": "[2]", "value": "increased antigen-specific T cell response; also recorded: larger population of peptide-specific T cells; also recorded: larger population of SIINFEKL-specific T cells"}]}, {"compound": "CCCCCCCCCCCCCCCCCCCCCCCCCC(=O)N[C@@H](CO[C@H]1O[C@H](CO)[C@H](O)[C@H](O)[C@H]1O)[C@H](O)[C@H](O)CCCCCCCCCCCCCC", "note": "[α-GalCer, α-Galactosylceramide]", "values": [{"measurement": "Solubility", "setting": "[3]", "value": "poor solubility"}, {"measurement": "Activation of human NKT cells", "setting": "human NKT cells", "value": "potently activates"}, {"measurement": "Activation of mouse NKT cells", "setting": "mouse NKT cells", "value": "potently activates"}]}, {"compound": "(2S,3S,4R)-1-(6-Deoxy-6-(4-β-(FFRKSIINFEKL)-3-oxopropyl)-1H-1,2,3-triazol-1-yl)hexanoyl)-(N-Val-Cit-4-aminobenzyloxycarbonylamino)-1-(α-D-galactopyranosyloxy))-2-hexacosanoylamino-3,4-octadecandiol [CI-017]", "values": [{"measurement": "SIINFEKL-specific cytotoxicity (percentage of peptide-loaded targets killed relative to control cells)", "setting": "[4]", "value": "greater SIINFEKL (SEQ ID NO: 262)-specific cytotoxicity"}, {"measurement": "Anti-tumour activity (mean tumour size)", "setting": "B16.OVA melanoma cells", "value": "superior anti-tumour activity"}]}]}
